Measurements from patent USRE45173E1, “Inhibitors of CYP 17” (Novartis AG, priority 2009, dated 2014).
Like-named read-outs stand apart in the source and are kept apart here.

What was measured:
[1] = target: rat CYP17 lyase (Rattus norvegicus (Rat), UniProt P11715); test: rat CYP 17 Lyase model, rat testes microsomes as the source; assay type: biochemical; settings: for inhibition at 0.1 µM: 100 nM compound, read-out: rCYP17 Lyase % Inh @ 100 nM; for IC50: rat testes microsomes, substrate 0.5 μM, read-out: Lyase IC 50 nM Human/Rat (Rat)
Protocol: For routine screening, the assay was set up with 16 μg of enzyme in 50 μL reaction volume. 17α-hydroxy pregnenolone [21-3H] was added to a final concentration of 0.25 μM. NADPH is used at a final concentration of 4.2 mM. Total reaction volume was made up to 50 μL with 50 mM Phosphate buffer pH 7.5. The reaction mixture was incubated at room temperature for 90 minutes with gentle shaking. The reaction was stopped by the addition of 100 μL of buffer. 500 μL of 5% freshly prepared activated charcoal was added to the solution and mixed well by vortexing. The samples were centrifuged at 17568×g for 5 minutes. (14000 rpm). The supernatant was carefully transferred to fresh tube and 1.3 mL of scintillation fluid was added, mixed by vortexing.
The radioactivity was measured in a 1450 MicroBeta TriLux™ scintillation counter from Wallac-Perkin Elmer®, USA. The measurements were carried out in 2.0 mL Eppendorforf™ tubes. Each tube was counted for 1 minute. The amount of tritiated acetic acid released is proportional to the lyase activity. Percent lyase activity in presence of inhibitor was calculated using the formula given below.
[formula] • Sample: Enzyme reaction in presence of inhibitor. • Positive control: Enzyme reaction without inhibitor but containing DMSO at 1% final concentration. • Blank-Contains all reagents except enzyme. % Inhibition=100%−% Lyase activity
For IC50 determination, the % inhibition was plotted as a function of inhibitor concentration. The data was fitted to sigmoidal equation using Graphpad Prism® software IV to generate IC50 values.
For the rat CYP 17 Lyase Model:
The same procedure described above was used but using rat testes microsomes as the source and with a substrate concentration of 0.5 μM.

[2] = target: recombinant human CYP17 enzyme (Homo sapiens (Human), UniProt P05093); test: Cytochrome P450, 17-20 lyase (CYP17-lyase) assay, tritiated acetic acid release from 17-α-hydroxy pregnenolone [21-3H]; assay type: biochemical; settings: human CYP17, substrate 0.25 μM
Outline: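 Membranes of cells expressing human CYP17 incubated 90 min at room temperature with [21-3H]17α-hydroxypregnenolone and 4.2 mM NADPH in 50 mM phosphate pH 7.5. Released tritiated acetic acid separated from steroids by charcoal and counted by scintillation; IC50 from sigmoidal fit of % inhibition.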

Chain of rat CYP17 lyase (P11715 whole entry): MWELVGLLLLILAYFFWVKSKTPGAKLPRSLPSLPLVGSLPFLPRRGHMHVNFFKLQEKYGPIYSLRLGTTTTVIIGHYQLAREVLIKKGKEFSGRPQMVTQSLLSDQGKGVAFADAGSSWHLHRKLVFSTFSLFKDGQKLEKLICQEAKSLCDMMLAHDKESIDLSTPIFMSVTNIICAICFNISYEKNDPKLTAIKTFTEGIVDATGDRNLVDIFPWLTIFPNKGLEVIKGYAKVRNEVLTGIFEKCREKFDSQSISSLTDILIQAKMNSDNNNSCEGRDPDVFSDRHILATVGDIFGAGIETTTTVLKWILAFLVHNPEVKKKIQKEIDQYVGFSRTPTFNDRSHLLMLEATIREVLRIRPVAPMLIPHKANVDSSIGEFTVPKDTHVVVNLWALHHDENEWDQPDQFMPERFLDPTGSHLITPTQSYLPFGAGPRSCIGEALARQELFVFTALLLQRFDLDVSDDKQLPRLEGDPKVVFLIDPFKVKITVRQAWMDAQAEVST
Chain of recombinant human CYP17 enzyme (P05093 whole entry): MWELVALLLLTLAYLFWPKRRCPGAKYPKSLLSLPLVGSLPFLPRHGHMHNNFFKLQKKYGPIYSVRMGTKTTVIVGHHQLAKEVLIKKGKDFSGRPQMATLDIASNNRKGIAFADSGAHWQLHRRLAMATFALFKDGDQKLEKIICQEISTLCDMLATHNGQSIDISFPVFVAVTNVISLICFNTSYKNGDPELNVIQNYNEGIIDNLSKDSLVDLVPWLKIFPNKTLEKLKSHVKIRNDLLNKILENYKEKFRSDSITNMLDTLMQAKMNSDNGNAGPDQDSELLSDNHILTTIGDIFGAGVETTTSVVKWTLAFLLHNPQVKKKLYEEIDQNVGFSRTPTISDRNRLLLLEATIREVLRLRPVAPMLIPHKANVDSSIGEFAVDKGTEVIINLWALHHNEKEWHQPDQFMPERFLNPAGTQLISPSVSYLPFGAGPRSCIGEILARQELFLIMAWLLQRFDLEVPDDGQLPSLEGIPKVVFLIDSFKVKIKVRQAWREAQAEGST

Structure (SMILES)	inhibition at 0.1 µM [1] [%]	IC50 [1] [nM]	also measured
O=C1N(c2cncc(C(F)(F)F)c2)CCN1c1ccc2ccccc2c1 [Example 79A, 1-Naphthalen-2-yl-3-(5-trifluoromethyl-pyridin-3-yl)-imidazolidin-2-one]	3.6	–	–
Cc1ccncc1N1CCN(c2ccc(F)nc2)C1=O [Example 30A, 1-(6-Fluoro-pyridin-3-yl)-3-(4-methyl-pyridin-3-yl)-imidazolidin-2-one]	76	–	–
O=C1N(c2cccnc2)CCN1c1ccc2ncccc2c1 [Example 8A, 1-Pyridin-3-yl-3-quinolin-6-yl-imidazolidin-2-one]	48	–	–
O=C1N(c2cccnc2)CCCN1c1ccc2ccccc2c1 [Example 10A, 1-Naphthalen-2-yl-3-pyridin-3-yl-tetrahydro-pyrimidin-2-one]	11	–	–
O=C1N(c2cncc(Cl)c2)CCN1c1ccc2ccccc2c1 [Example 80A]	57	–	–
O=C1N(c2cncc(F)c2)CCN1c1ccc2ccccc2c1 [Example 81A, 1-(5-Fluoro-pyridin-3-yl)-3-naphthalen-2-yl-imidazolidin-2-one]	82	–	–
CCn1ccc2cc(N3CCN(c4cccnc4)C3=O)ccc21 [Example 2A, 1-(1-Ethyl-1H-indol-5-yl)-3-pyridin-3-yl-imidazolidin-2-one]	23	–	–
Cc1c(N2CCN(c3cccnc3)C2=O)sc2ccc(F)cc12 [Example 6A, 1-(5-Fluoro-3-methyl-benzo[b]thiophen-2-yl)-3-pyridin-3-yl-imidazolidin-2-one]	51	157	–
Cc1cc(Cl)nc2ccc(N3CCN(c4cccnc4)C3=O)cc12 [Example 11A, 1-(2-Chloro-4-methyl-quinolin-6-yl)-3-pyridin-3-yl-imidazolidin-2-one]	59	97	–
O=C1N(c2cccnc2)CCCN1c1ccc2sccc2c1 [Example 13A, 1-Benzo[b]thiophen-5-yl-3-pyridin-3-yl-tetrahydro-pyrimidin-2-one]	9	–	–
CCN1C(=O)CCc2cc(N3CCN(c4cnccc4C)C3=O)ccc21 [Example 17A, 1-Ethyl-6-[3-(4-methyl-pyridin-3-yl)-2-oxo-imidazolidin-1-yl]-3,4-dihydro-1H-quinolin-2-one]	83	21	–
O=C1N(c2cccnc2)CCN1c1ccc2sccc2c1 [Example 7A, 1-Benzo[b]thiophen-5-yl-3-pyridin-3-yl-imidazolidin-2-one]	87	16	–
CCN1C(=O)CCc2cc(N3CCN(c4cccnc4)C3=O)ccc21 [Example 5A, 1-Ethyl-6-(2-oxo-3-pyridin-3-yl-imidazolidin-1-yl)-3,4-dihydro-1H-quinolin-2-one]	51	–	–
Cc1ccncc1N1CCN(c2ccc(-c3ccccc3)cc2)C1=O [Example 19A, 1-Biphenyl-4-O-3-(4-methyl-pyridin-3-yl)-imidazolidin-2-one]	91	11	–
CCn1c(=O)cc(C)c2cc(N3CCN(c4cnccc4C)C3=O)ccc21 [Example 20A, 1-Ethyl-4-methyl-6-[3-(4-methyl-pyridin-3-yl)-2-oxo-imidazolidin-1-yl]-1-1H-quinolin-2-one]	69	56	–
O=C1N(c2cccnc2)CCN1c1ccc2scnc2c1 [Example 9A, 1-Benzothiazol-5-yl-3-pyridin-3-yl-imidazolidin-2-one]	18	–	–
COc1ccc2cc(N3CCN(c4cccnc4)C3=O)ccc2c1 [Example 3A, 1-(6-Methoxy-naphthalen-2-yl)-3-pyridin-3-O-imidazolidin-2-one]	31	–	–
Cc1ccncc1N1CCN(c2ccc3c(c2)CCO3)C1=O [Example 51A, 1-(2,3-Dihydro-benzofuran-5-yl)-3-(4-methyl-pyridin-3-yl)-imidazolidin-2-one]	–	–	IC50 ([2]; read-out: Lyase IC 50 nM Human/Rat (Human)): 14 nM
O=C1N(c2cnc3[nH]ccc3c2)CCN1c1ccc2ncsc2c1 [Example 187A, 1-Benzothiazol-6-yl-3-(1H-pyrrolo[2,3-b]pyridin-5-yl)-imidazolidin-2-one]	–	–	IC50 ([2]; read-out: Lyase IC 50 Human/Rat (Human)): > 10000 nM
